Data: BindingDB's records for patent US20230271937 (Nuevolution, 2023)
pEC50: −log10 of the molar value.

Molecular target: T1, Isoform 2 of Nuclear receptor ROR-gamma (RORgT) (Homo sapiens, UniProt P51449)
T1 sequence (P51449 whole entry): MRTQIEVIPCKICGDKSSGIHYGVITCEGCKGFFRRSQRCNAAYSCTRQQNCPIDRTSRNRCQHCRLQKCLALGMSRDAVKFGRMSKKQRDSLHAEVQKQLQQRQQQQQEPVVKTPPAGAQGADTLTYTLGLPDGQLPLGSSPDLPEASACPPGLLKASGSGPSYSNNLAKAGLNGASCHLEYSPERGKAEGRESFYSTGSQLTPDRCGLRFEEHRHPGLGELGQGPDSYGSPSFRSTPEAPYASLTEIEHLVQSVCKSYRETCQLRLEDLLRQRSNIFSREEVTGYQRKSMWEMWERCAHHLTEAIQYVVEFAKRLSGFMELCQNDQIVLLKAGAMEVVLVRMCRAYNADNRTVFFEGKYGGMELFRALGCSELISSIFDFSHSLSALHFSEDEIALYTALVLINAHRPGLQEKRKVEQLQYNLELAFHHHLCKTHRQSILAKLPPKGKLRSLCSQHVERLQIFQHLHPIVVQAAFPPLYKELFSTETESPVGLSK
Assay: RORgamma Reporter Assay (Gal4)
Protocol: The HEK293 cell line is co-transfected transiently with two plasmids, one with the RORγ ligand-binding domain fused to galactose-responsive transcription factor (Gal4), and the other with the luciferase reporter gene and Gal binding sites (UAS). This construction allows to determine the RORγ activity in a cellular system through the measurement of luminescence. A suspension of RORγ reporter cells was dispensed into plates and cultured 2 h at 37° C. and 5% CO2. Media formulation consisted in DMEM/F-12 medium (Gibco) supplemented with 10% heat inactivated FBS (Sigma-Aldrich), non-essential aminoacids (Sigma-Aldrich), 2 mM Glutamax (Gibco) and 100 U/mL penicillin (Sigma-Aldrich). Dose-response curves with compounds were prepared in 100% DMSO and further diluted 100-fold in culture medium. […] The following formula was used: activity=100*[1−[x test compound/average vehicle] where the theoretical minimum reduction (0% reduction).

`CN(Cc1cccc(C#N)c1)c1ncnc(NC[C@H]2CCN(CC(N)=O)C[C@@H]2O)c1F` [US20230271937, Example F2-08] gave a pEC50 of 6.15.
